The nature of series [1]: Rat dual-probe brain microdialysis study. The series is classed as in vivo. To be noted: rat MD study, 1 mg/kg p.o.
Series [2] concerns serotonin turnover (5-HIAA/5-HT). The experiment in a line: Serotonin turnover index in rat frontal cortex. Format: in vivo. To be noted: p.o.
The subject of series [3] is dopamine turnover ((HVA+DOPAC)/DA). Briefly: Dopamine turnover index in rat striatum. Format: in vivo. To be noted: p.o.
For another series, the system named is dopamine biosynthesis. Briefly: NSD-1015-induced DOPA accumulation in striatum of reserpine-treated rats. Format: in vivo, rat. Conditions: p.o.
The conditions of series [4]: human plasma; cited from earlier work.
A further series is described as follows: in vivo. To be noted: male, Wistar, rat, plasma, other: p.o. and i.v.

The text below walks through data of PMC6754336 (Drug Design, Development and Therapy, 2019).

The structures appear in SMILES notation. Where a name gives a salt, the structure may show the parent alone.

As to `CN(C)C(=O)N[C@H]1CC[C@H](CCN2CCN(c3cccc(Cl)c3Cl)CC2)CC1` [CAR, trans-N-[4-[2-[4-(2,3-dichlorophenyl)piperazin-1-yl]ethyl]cyclohexyl]-N’,N’-dimethylureahydrochloride], the “free extracellular level as percent of total brain exposure” value in series [1] is on record as 1–2%. In addition, the “extracellular levels in the brain” value in series [1] (listed as cariprazine, 1 mg/kg) was 2.6 to 9.9 nM. Besides, in series [2], the “effect on serotonin turnover” value was “slightly reduced serotonin turnover”. Also, the “effect on dopamine turnover” value in series [3] is “dose-dependently enhanced dopamine turnover”. Also, the “effect on NSD-1015-induced accumulation of DOPA” value with dopamine biosynthesis is on record as “inhibited the NSD-1015-induced accumulation of DOPA”. Further, the half-life in humans in series [4] was 24 to 72 h. This compound also had a half-life in “in vivo” of 2 to 3 h.
